Where two headings read alike, the source gives them in different places.
How the values were obtained:
Micrococcus flavus [1] = assay: Flow microcalorimetry (p-t curves) of growing culture; format: cell-based; conditions: bacterial concentration printed '0?'
Excerpt: (§1) • a) For B. pumilus a simple glucose/salts medium was employed with a glucose concentration of 0.1 % w/v. • b) For Bord. bronch. The above salts medium was used with the addition of nicotinic acid, methionine and glutamic acid. Glutamic acid was used at a concentration of 0.2% w/v. • c) For M. flavus a semidefined medium was employed, using the same salts as a B. pumilus but also Na-citrate, biotin and protease peptone. In the calorimeter a concentration of 0.4% protease peptone was used. All medium constituents (except protease) were analytical reagents. The calorimetric medium was therefore a final concentration of 100ml of either solution a, b or c freshly autoclaved for 15 mins exactly at 121°C, 151b/sq inch. Glucose was added to the appropriate solution after autoclaving.
To the vertical face of the vessel close to its base, equidistantly spaced around the circumference, ports were fitted for an oxygen electrode and for sampling/inoculation. The fermenter was closed with a flat flanged glass lid which had five ports accommodating respectively, gas inlet tube, gas exhaust (via air condenser), inlet and outlet flow-lines to and from the calorimeter. The fermenter and lid was sealed with a p.t.f.e. gasket and clamped with a metal clip. […]

B. pumilus = assay: MIC determination, two-fold serial dilutions assayed for turbidity; format: cell-based, Bacillus pumilus
Method: (§2) MIC and MBC's were determined as follows: • Two-fold serial dilutions of antibiotic in their respective media were incubated for 16-24h (depending on the bacterial strain) and assayed for turbidity. A tube with a turbid suspension was not inhibited and a clear suspension with the lowest concentration of antibiotic showing no growth was designated MIC. MBC's were checked as follows: 0.01ml of each suspension from tubes showing no growth were added to agar plates and incubated for 48H; the lowest concentration of antibiotic from which no colonies formed was designated MBC.

E.coli = assay: MIC and MBC determination, two-fold serial dilutions assayed for turbidity; format: cell-based
Method: MIC and MBC's were determined as follows: • Two-fold serial dilutions of antibiotic in their respective media were incubated for 16-24h (depending on the bacterial strain) and assayed for turbidity.
A tube with a turbid suspension was not inhibited and a clear suspension with the lowest concentration of antibiotic showing no growth was designated MIC. MBC's were checked as follows: 0.01ml of each suspension from tubes showing no growth were added to agar plates and incubated for 48H; the lowest concentration of antibiotic from which no colonies formed was designated MBC.
To assay the nitrofurans at a concentration where the maximum sensitivity to E.coli could be achieved MIC's were determined for each compound. […] The respiratory medium was the one described previously at pH7. […] None of the nitrofurans were water soluble so prior to either MIC determination or incubation an accurately weighed sample of each compound was dissolved in 0.4ml DMSO and then 1.6ml H2O was added. When this solution was added to either tubes containing nutrient broth or to the fermentation vessels emulsions resulted. Good stirring minimised the problem in the calorimeter. No compensation was made for DMSO when diluting the samples as high concentrations of DMSO could falsify the results. […] Two types of responses were observed. […] No dependence of MIC on either RMM or power could be observed.

respiring E.coli = assay: Flow microcalorimetry (p-t curves) of respiring cells in glucose buffer; format: cell-based
Method: The respiration experiments were carried out in glucose buffer at different pH.
The nitrofurans only differed in the length of their side chains (e.g. methyl, propyl etc.).
To assay the nitrofurans at a concentration where the maximum sensitivity to E.coli could be achieved MIC's were determined for each compound. […] The respiratory medium was the one described previously at pH7. […] No compensation was made for DMSO when diluting the samples as high concentrations of DMSO could falsify the results.

[2] = system: Bordetella bronchiseptica; assay: Flow microcalorimetry (p-t curves) of growing culture; format: cell-based
Excerpt: as §1
(§3) To the vertical face of the vessel close to its base, equidistantly spaced around the circumference, ports were fitted for an oxygen electrode and for sampling/inoculation. The fermenter was closed with a flat flanged glass lid which had five ports accommodating respectively, gas inlet tube, gas exhaust (via air condenser), inlet and outlet flow-lines to and from the calorimeter. The fermenter and lid was sealed with a p.t.f.e. gasket and clamped with a metal clip. The fermenter was placed on a magnetic stirring unit in a water jacket which allowed circulation of the thermostatically controlled water at 30°C or 37°C. The fermenter which contained a Teflon coated magnetic stirring bar, was sterilised by autoclaving.
(§4) For a typical calorimetric incubation the medium was passed through the calorimetric vessel at the same flow rate and temperature as those used in the experiment to establish a steady baseline deflection. The following operations then took place to a strict timetable. The liquid nitrogen stored ampoule was thawed at 38°C for 3 min and then stirred for 20 sec on a whirlimixer. The bacterial suspension (0.5-1.5ml) volumes was inoculated into the medium (100ml) two minutes after completion of thawing. A Gilson automatic pipette was used for inoculation. The calorimeter inlet flow-line was placed in the incubation medium 30 seconds after inoculation. The flowing incubation medium reached the calorimetric vessel two min after inlet flow-line insertion. At this time the recording of the p-t curves was started. Eight min after inoculation the outflow from the calorimeter was returned to the fermenter (after the "baseline" medium had run to waste but before the inoculated medium ran to waste) thus making a closed system. Aeration was started as soon as the inlet tube was inserted in the fermenter. Microbiological purity of the culture was checked by plating out a sample of the culture at the end of each incubation on nutrient agar (lab M).
(§5) The output of calorimetric experiments is a plot of power (energy evolution per unit of time) as a function of time. The unit of power (p) is the Watt (W) and the unit of time is the hour (h). In some experiments seconds (s) were used as time unit.
After successful freezing of Bord. bronch p-t curves for growth in different concentrations of glutamic acid from 0.1%-0.5% were obtained. It was concluded that a medium containing 0.2% glutamic acid would be sufficient for a good deflection in the microcalorimeter minimising the possibility of the bacteria clogging in the microcalorimetric cell or in the teflon tubes leading to and from the microcalorimetric cell. A pH of 7 was used in all the following experiments as this is the optimum pH for polymyxin - lipid binding.
It was of vital importance to maintain a constant oxygen tension; this was achieved by using saturation concentrations of oxygen. It was decided to use the height of the small peak as full scale deflection for the antibiotic assay as the increase in power was exponential up to this point and the peak occurred at a convenient time. This choice of assay point was empirical. The inoculum was 1.1 ± 0.06 x 10^8 cfu/ml for all the microclalorimetric incubations. […]

Bacillus pumilus = assay: as above; format: cell-based
Excerpt: as §1, §3, §4, §5
P-t curves of B. pumilus at 30µV full scale deflection (471.15µW) show a logarithmic increase in power. […] After 10h growth the power output was: 17% for 0.05% glucose, 22% for 0.2% glucose and 18% for 0.1% glucose. It was decided to use 0.1% glucose for microcalorimetrically monitored growth experiments, because use of 0.2% glucose could result in the bacterium clumping in the calorimetric chamber or in the Teflon tubes leading to and from the calorimeter. In 0.05% glucose B. pumilus grew slightly slower and to a smaller percentage total deflection than in the 0.1 % glucose incubations. The p-t curve of 0.1 % glucose on 10µV (157.05µW full scale deflection) was obtained.

Micrococcus flavus [3] = assay: MIC and MBC determination, two-fold serial dilutions assayed for turbidity; format: cell-based
Method: as §2

[4] = system: Bordetella bronchiseptica; assay: as above; format: cell-based
Method: as §2

[5] = Animal case study, antibiotic treatment of a scratch to the eye; format: in vivo; conditions: 30 days of treatment, domestic cat with a scratch to the eye
Method: A domestic cat was given a mixture of antibiotics as eye drops in response to a scratch to the eye. […] Previously the cat had never been given milk (as many animals are allergic to cow's milk). The cat was now given full cream milk as part of a regimen to promote weight gain (the cat also continued to eat its usual amount of daily cat food throughout the period of weight loss). Initially weight was gained but within 24 hours weight loss resumed (presumably because the pathogenic bacteria/viruses had found a way of utilising lactose). An autopsy indicated bone-cancer as cause of death. The body wasting caused by the weight loss was very similar to that observed in early AIDS cases. However the cat had been regularly vaccinated against HTLV 1 through its 16 year life (and had never been ill in that period).

Polymyxin B sulphate
Observed effect on p-t curves (Micrococcus flavus [1]; 2ug/ml): Slightly delayed peak
MIC (B. pumilus; inoculum not given): POL 20 ug/ml
MBC (E.coli): 6.3 µg/mL
MIC (E.coli): 6.3 µg/mL
MBC (E.coli; listed as POL): POL 6.3ug/ml
MIC (E.coli; listed as POL): POL 6.3ug/ml
Comments (respiring E.coli; respiration, 6.3 ug/ml): Bacteriocidal action demonstrated
Observed effect on p-t curves (respiring E.coli; respiration, 6.3 ug/ml): Reduced height of p-t curve initially and returned to baseline within I hour
sensitivity of the assay (respiring E.coli; respiring E.coli): 3 µg/mL
effect on p-t curve (respiring E.coli; respiring E.coli, pH 7): reduced the initial peak height and thereafter the p-t curve returned to baseline
Observed effect on p-t curves ([2]; 0.07 ug/ml added at 18 % of p-t curve): No effect on growth curve
response ([2]; 0.033 x MIC (0.07 µg/ml)): no response to the antibiotic was observed
Comments ([2]; 0.35 -2 ug/ml added at 18 % of p-t curve): All curves return to baseline confirmed bacteriocidal action
Observed effect on p-t curves ([2]; 0.35 -2 ug/ml added at 18 % of p-t curve, 10 min after addition): Linear log dose response 10 min after addition of antibiotic CV 2.5%
p-t curve ([2]; 0.5 x MIC, within 10 min of addition): sharp decline in heat output
mode of action ([2]; at MIC values): bactericidal
decline of the p-t curve ([2]; concentration larger than 3.5 x MIC): the declines were identical
reversibility of the effect ([2]; most concentrations of antibiotic, decline in power decreased to a baseline value): irreversible
time to observable response after addition of the antibiotic ([2]; usually): ≤ 5 min
Observed effect on p-t curves (Bacillus pumilus; 20ug/ml, within 9 hours, bacterial concentration printed '0?'): Within 9 hours growth was inhibited completely
MIC (Micrococcus flavus [3]): POL 2ug/ml
MBC [4]: Ug/ml MIC & MBC 2 ug/ml
MIC [4]: Ug/ml MIC & MBC 2 ug/ml
MIC ([4]; listed as POL): POL 2ug/ml
MBC ([4]; listed as polymyxin B sulphate): 2 µg/mL
MIC ([4]; listed as polymyxin B sulphate): 2 µg/mL

NC[C@@H]1O[C@H](O[C@H]2[C@@H](O)[C@H](O[C@@H]3[C@@H](O)[C@H](N)C[C@H](N)[C@H]3O[C@H]3O[C@H](CN)[C@@H](O)[C@H](O)[C@H]3N)O[C@@H]2CO)[C@H](N)[C@@H](O)[C@@H]1O.O=S(=O)(O)O [Neomycin sulphate]
Observed effect on p-t curves (Micrococcus flavus [1]; 4 ug/ml): No effect on p-t curve
effect at MIC (B. pumilus; 5.1 x 10^6 cfu/ml): bacteriostatic
MIC (B. pumilus; 5.1 x 10^6 cfu/ml, inoculum used in the microcalorimetric incubations): 2 µg/mL
MIC (B. pumilus; inoculum not given): MIC NEO 1 ug/ml
MIC (B. pumilus; inoculum of 1x10^5 cfu/ml): 0.1 µg/mL
effect at MIC (B. pumilus; inoculum of 1x10^5 cfu/ml): bacteriostatic
MBC (E.coli): NEO 5900 ug/ml
MIC (E.coli): 500 µg/mL
MIC (E.coli; listed as NEO): NEO 5900 ug/ml
range of linear dose-response (respiring E.coli; respiration): 10 to 100 µg/mL
Observed effect on p-t curves (respiring E.coli; respiration, 500 ug/ml): Increase in heat output
range of linear relationship between dose and the reciprocal of increase in response from the control curve (respiring E.coli; respiring E.coli): 20 to 100 µg/mL
heat output (respiring E.coli; respiring E.coli, all concentrations): increased heat output
effect on power (respiring E.coli; respiring E.coli, pH 8): caused an increase in power
Observed effect on p-t curves ([2]; 0.25ug/ml added at 50 % of p-t curve): No effect on p-t curve
power output (Bacillus pumilus; 0.5 and 1 x MIC (1-2 µg/ml) added after an increase of 10% of full scale deflection): the same effect was observed
power output (Bacillus pumilus; 0.5 x MIC (1µg/ml) added after a 25% increase power output, 2-4h after addition): massive power output
power output (Bacillus pumilus; added after an increase in power output of 15% of full scale deflection): only marginally larger than that observed for the normal growth curve
heat output (Bacillus pumilus; concentrations of < 1ug/ml or in combinations with other antibiotics, organism not named at this place): increased heat output
power output (Bacillus pumilus; higher concentrations of antibiotic (above 1 x MIC), added after 10% of full scale deflection): a decrease in power output was observed
MIC (Micrococcus flavus [3]): MIC NEO 4 ug/ml
MIC [4]: MIC NEO 0.25 ug/ml

CN[C@H](CC(C)C)C(=O)N[C@H]1C(=O)N[C@@H](CC(N)=O)C(=O)N[C@H]2C(=O)N[C@H]3C(=O)N[C@H](C(=O)N[C@H](C(=O)O)c4cc(O)cc(O)c4-c4cc3ccc4O)[C@H](O)c3ccc(c(Cl)c3)Oc3cc2cc(c3O[C@@H]2O[C@H](CO)[C@@H](O)[C@H](O)[C@H]2O[C@H]2C[C@](C)(N)[C@H](O)[C@H](C)O2)Oc2ccc(cc2Cl)[C@H]1O [vancomycin]
effect of treatment on the eye [5]: without any effect to the eye
